PMC9430567, “A Small-Molecule Inhibitor of the Anthranilyl-CoA Synthetase PqsA for the Treatment of Multidrug-Resistant Pseudomonas aeruginosa” (Microbiology Spectrum, 2022)
≈ marks a conversion by molar mass, not a printed value.

Assays:
[1] = target: T1, RhlI (Pseudomonas aeruginosa, UniProt P54291); assay: biochemical; set-up: biolayer interferometry (BLI) binding to purified His6-tagged protein
T1 construct: His6-tagged RhlI (pET30a-His6-rhlI)
Experimental: (§1) [compound left out]. Cell debris was removed by centrifugation. […] The purified protein was assessed by SDS-PAGE.

[2] = target: T2, LasI (Pseudomonas aeruginosa, UniProt P33883); assay: biochemical; set-up: biolayer interferometry (BLI) binding to purified His6-tagged protein
T2 construct: His6-tagged LasI (pET30a-His6-lasI)
Experimental: as §1

[3] = target: T3, PqsR (Pseudomonas aeruginosa, UniProt Q9I4X0); assay: biochemical; set-up: biolayer interferometry (BLI) binding to purified His6-tagged protein
T3 construct: gene mvfR; His6-tagged PqsR (pET30a-His6-pqsR)
Experimental: as §1

[4] = target: T4, PqsD (Pseudomonas aeruginosa, UniProt P20582); assay: biochemical; set-up: biolayer interferometry (BLI) binding to purified His6-tagged protein
T4 construct: His6-tagged PqsD (pET30a-His6-pqsD)
Experimental: as §1

[5] = target: T5, PqsA G279A (Pseudomonas aeruginosa, UniProt Q9I4X3, G279A); assay: biolayer interferometry (Octet K2); format: binding
T5 construct: His6-tagged PqsA G279A (pET30a-His6-pqsA^G279A), expressed in E. coli BL21 Star (DE3)
T5 sequence (Q9I4X3 1-517 G279A): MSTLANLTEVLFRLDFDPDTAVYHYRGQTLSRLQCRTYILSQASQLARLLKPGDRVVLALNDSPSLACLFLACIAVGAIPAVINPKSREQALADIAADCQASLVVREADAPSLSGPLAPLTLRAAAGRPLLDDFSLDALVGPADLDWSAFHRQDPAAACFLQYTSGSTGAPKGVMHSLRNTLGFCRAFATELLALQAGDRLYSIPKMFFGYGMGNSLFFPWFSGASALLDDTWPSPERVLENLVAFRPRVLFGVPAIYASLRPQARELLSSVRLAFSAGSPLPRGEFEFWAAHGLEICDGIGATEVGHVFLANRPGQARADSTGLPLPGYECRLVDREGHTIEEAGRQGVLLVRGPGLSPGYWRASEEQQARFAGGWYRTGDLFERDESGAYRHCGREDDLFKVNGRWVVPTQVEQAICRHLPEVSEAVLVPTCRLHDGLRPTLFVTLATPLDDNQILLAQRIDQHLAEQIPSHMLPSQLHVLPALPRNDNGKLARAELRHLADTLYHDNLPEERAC

[6] = target: RhlR (Pseudomonas aeruginosa, UniProt P54292); assay: biochemical
[7] = target: T6, PqsE (Pseudomonas aeruginosa, UniProt P20581); assay: biolayer interferometry (Octet K2); format: binding
T6 construct: His6-tagged PqsE (pET30a-His6-pqsE), expressed in E. coli BL21 Star (DE3)

[8] = target: T7, anthranilyl-CoA synthetase PqsA (Pseudomonas aeruginosa, UniProt Q9I4X3); assay: biolayer interferometry (Octet K2); format: binding
T7 construct: His6-tagged PqsA (pET30a-His6-pqsA), expressed in E. coli BL21 Star (DE3)

[9] = target: T8, LasR (Pseudomonas aeruginosa, UniProt P25084); assay: biolayer interferometry (Octet K2); format: binding
T8 construct: His6-tagged LasR (pET30a-His6-LasR), expressed in E. coli BL21 Star (DE3)

[10] = target: T9, PqsA D299A (Pseudomonas aeruginosa, UniProt Q9I4X3, D299A); assay: biolayer interferometry (Octet K2); format: binding
T9 construct: His6-tagged PqsA D299A (pET30a-His6-pqsA^D299A), expressed in E. coli BL21 Star (DE3)
T9 sequence (Q9I4X3 1-517 D299A): T5 sequence (Q9I4X3 1-517 G279A)

[11] = tested on: T10, MDR P. aeruginosa C218; assay: microbe, parasite or virus in culture; set-up: species or system Pseudomonas aeruginosa C218; CLSI broth micro-dilution MIC, complete inhibition of visible growth; conditions: Pseudomonas aeruginosa
T10 construct: C218
Experimental: MIC determination using the standard micro-dilution method was performed according to the Clinical and Laboratory Standards Institute ([29]). […] Experiments were performed in triplicate.

For `c1ccc2c(c1)[nH]c1cnccc12` [norharmane], the Kd [1] was > 1000 µM, the Kd [2] was > 1000 µM and the Kd [3] was > 1000 µM. For the same compound, the Kd [4] was > 1000 µM, the Kd [5] was 1100 µM and the Kd [6] was > 1000 µM. It also gave a Kd [7] of 500 µM, a Kd [8] of 2.54 µM and a Kd [9] of 2290 µM. It also gave a Kd [10] of 1650 µM.

For `CC(C)(O/N=C(\C(=O)N[C@@H]1C(=O)N2C(C(=O)[O-])=C(C[n+]3ccccc3)CS[C@H]12)c1csc(N)n1)C(=O)O` [Ceftazidime], the MIC [11] was 500 µg/mL (≈ 915 µM).

`C[C@@H](O)[C@H]1C(=O)N2C(C(=O)O)=C(SCCNC=N)C[C@H]12` [Imipenem] showed an MIC [11] of 500 µg/mL (≈ 1670 µM).

With `NC[C@H]1O[C@H](O[C@H]2[C@H](O)[C@@H](O[C@H]3O[C@H](CO)[C@@H](O)[C@H](N)[C@H]3O)[C@H](N)C[C@@H]2N)[C@H](O)[C@@H](O)[C@@H]1O` [Kanamycin] the MIC [11] was 310 µg/mL (≈ 640 µM).

In the case of `CO/N=C(\C(=O)N[C@@H]1C(=O)N2C(C(=O)[O-])=C(C[N+]3(C)CCCC3)CS[C@H]12)c1csc(N)n1` [Cefepime], the MIC [11] is reported as 4000 µg/mL (≈ 8320 µM).

With `C[C@H]1[C@H](NC(=O)/C(=N\OC(C)(C)C(=O)O)c2csc(N)n2)C(=O)N1S(=O)(=O)O` [Aztreonam] the MIC [11] was 4000 µg/mL (≈ 9190 µM).

`CCn1cc(C(=O)O)c(=O)c2cc(F)c(N3CCNC(C)C3)c(F)c21` (centres unmarked) [Lomefloxacin] showed an MIC [11] of 125 µg/mL (≈ 356 µM).

`NC[C@H]1O[C@H](O[C@H]2[C@H](O)[C@@H](O[C@H]3O[C@H](CO)[C@@H](O)[C@H](N)[C@H]3O)[C@H](N)C[C@@H]2N)[C@H](N)C[C@@H]1O` [Tobramycin] was tested, and the MIC [11] was 3.9 µg/mL (≈ 8.34 µM).

For `NCC[C@H](O)C(=O)N[C@@H]1C[C@H](N)[C@@H](O[C@H]2O[C@H](CN)[C@@H](O)[C@H](O)[C@H]2O)[C@H](O)[C@H]1O[C@H]1O[C@H](CO)[C@@H](O)[C@H](N)[C@H]1O` [Amikacin], the MIC [11] was 7.8 µg/mL (≈ 13.3 µM).

Compound `COc1c(N2CCNC(C)C2)c(F)cc2c(=O)c(C(=O)O)cn(C3CC3)c12` (centres unmarked) [Gatifloxacin] has an MIC [11] of 62.5 µg/mL (≈ 166 µM).

Compound `C[C@@H](O)[C@H]1C(=O)N2C(C(=O)O)=C(S[C@@H]3CN[C@H](CNS(N)(=O)=O)C3)[C@H](C)[C@H]12` [Doripenem] has an MIC [11] of 500 µg/mL (≈ 1190 µM).

Compound `C[C@H]1COc2c(N3CCN(C)CC3)c(F)cc3c(=O)c(C(=O)O)cn1c23` [Levofloxacin] has an MIC [11] of 62.5 µg/mL (≈ 173 µM).

Compound `CC1(C)S[C@@H]2[C@H](NC(=O)[C@H](NC(=O)N3CCNC3=O)c3ccccc3)C(=O)N2[C@H]1C(=O)O` [Azlocillin] has an MIC [11] of 4000 µg/mL (≈ 8670 µM).

`CCN1CCN(C(=O)N[C@@H](C(=O)N[C@@H]2C(=O)N3[C@@H]2SC(C)(C)[C@@H]3C(=O)O)c2ccccc2)C(=O)C1=O` [Piperacillin] gave an MIC [11] of 4000 µg/mL (≈ 7730 µM).

`CCn1cc(C(=O)O)c(=O)c2cc(F)c(N3CCNCC3)cc21` [Norfloxacin] was tested, and the MIC [11] was 4000 µg/mL (≈ 12500 µM).

In the case of `C[C@@H](O)[C@H]1C(=O)N2C(C(=O)O)=C(S[C@@H]3CN[C@H](C(=O)N(C)C)C3)[C@H](C)[C@H]12` [Meropenem], the MIC [11] is reported as 500 µg/mL (≈ 1300 µM).

`CC1COc2c(N3CCN(C)CC3)c(F)cc3c(=O)c(C(=O)O)cn1c23` (centres unmarked) [Ofloxacin] showed an MIC [11] of 500 µg/mL (≈ 1380 µM).
